We go through 104 compounds from ChEMBL document CHEMBL3507680, “University of Dundee, Gates Library screen for HepG2 cell viability”.

A short description of this series: Human HepG2 cell viability assay in 384 well format. On the set-up: dose 125 nL, time 70.5 hour; concentration not given beside the values. The note with it: HepG2 cells, read-out: Inhibition. In kind it is toxicity, cell-based.
As for `O=C(NCCCC(=O)N1Cc2ccccc2C1)NCc1ccsc1`, the cytotoxicity at 70.5 h was 5.3%.

For the compound `CN1CCN(C2CCN(C(C(N)=O)c3ccccc3)CC2)C1=O` (centres undefined), the cytotoxicity at 70.5 h is -5.22%.

Consider `Cc1csc(C2(NC(=O)NCCN3CCOCC3)CCC2)n1`, for which the cytotoxicity at 70.5 h was -8.41%.

For the compound `CC(CNC(=O)c1ccc(F)cc1I)N1CCCC1` (centres undefined), the cytotoxicity at 70.5 h came to 22%.

As for `NC(=O)COc1cccc(C(=O)NCc2ccc(Cl)s2)c1`, the cytotoxicity at 70.5 h is -11.8%.

On to `CN(Cc1ccc(Cl)s1)C(=O)COc1cccc(C(N)=O)c1`, for which the cytotoxicity at 70.5 h was -26.8%.

`CNC(=O)CCS(=O)(=O)Cc1coc(-c2ccc(F)cc2)n1`: the cytotoxicity at 70.5 h was -20.2%.

Take `CC(C)c1noc(CN2CCC(c3nc4cc(Cl)ccc4o3)CC2)n1`: the cytotoxicity at 70.5 h is -19.1%.

For `Cc1cc(CN2CCN(C(=O)Cc3ccccc3F)CC2)on1`, the cytotoxicity at 70.5 h is -14%.

In the case of `Cc1nc(CN2CCC(c3nc4cc(Cl)ccc4o3)CC2)oc1C`, the cytotoxicity at 70.5 h was -19.4%.

As for `CN(CC(=O)N1CCN(c2ccccn2)CC1)c1ccc(Cl)cn1`, the cytotoxicity at 70.5 h was -17.2%.

As for `NS(=O)(=O)CCCNC(=O)C1(c2cccc(Cl)c2)CC1`, the cytotoxicity at 70.5 h was -22.9%.

For the compound `COc1ccc(C(=O)NS(=O)(=O)c2cncc(Br)c2)c(OC)c1`, the cytotoxicity at 70.5 h is -7.26%.

Regarding `O=C(CCNC(=O)N1CCC(c2ccccc2)C1)N1CCCCC1` (centres undefined), the cytotoxicity at 70.5 h is -13%.

Regarding `CC(CNC(=O)c1ccc(Cl)cc1F)N1CCN(C)CC1` (centres undefined), the cytotoxicity at 70.5 h stood at 13.3%.

Consider `COc1ccccc1C(=O)NS(=O)(=O)c1cncc(Br)c1`, for which the cytotoxicity at 70.5 h is 9.9%.

Turning to `Cn1cc(Br)c(=O)c(NS(=O)(=O)c2ccccc2F)c1`, the cytotoxicity at 70.5 h was -9.33%.

`CS(=O)(=O)NCCC1CCCCN1C(=O)NCCc1ccccn1` (centres undefined): the cytotoxicity at 70.5 h was -14.3%.

With `Cc1cc(CN2CCN(C(=O)CCc3cccs3)CC2)on1`, the cytotoxicity at 70.5 h was -18.8%.

In the case of `O=C1NCC2CN(Cc3ccccc3OCc3ccccn3)CCN12` (centres undefined), the cytotoxicity at 70.5 h was -13.1%.

In the case of `CCC(CC)N(C)S(=O)(=O)c1ccc(CCNC(C)=O)s1`, the cytotoxicity at 70.5 h was 1.4%.

`O=C(CSc1ccc2c(c1)OCCO2)NS(=O)(=O)c1cccs1`: the cytotoxicity at 70.5 h is -6.92%.

As to `CC(NC(=O)N(C)Cc1ccsc1)c1nncn1C` (centres undefined), the cytotoxicity at 70.5 h is -2.73%.

As to `O=C(NCC(c1cccs1)N1CCOCC1)c1ccc(F)cc1Cl` (centres undefined), the cytotoxicity at 70.5 h was -5.9%.

Consider `COc1ccc(-c2nnc(CN3CCNC(=O)C3)o2)cc1`, for which the cytotoxicity at 70.5 h is -2.61%.

Turning to `CC(Oc1ccc(S(C)(=O)=O)cc1)C(=O)NC(N)=O` (centres undefined), the cytotoxicity at 70.5 h is -7.21%.

On to `Cc1ccc(-c2nnc(CN3CCNC(=O)C3)o2)cc1`, for which the cytotoxicity at 70.5 h was -4.25%.

`Cc1cc(NC(=O)NCCc2ccc(S(N)(=O)=O)cc2)n(C)n1`: the cytotoxicity at 70.5 h was -6.71%.

Consider `Cc1cc(NC(=O)NCCc2cccnc2)n(C)n1`, for which the cytotoxicity at 70.5 h was -3.88%.

For `CC(Cn1cccn1)NC(=O)Nc1cccnc1` (centres undefined), the cytotoxicity at 70.5 h is -8.71%.

Turning to `COc1ccc(NC(=O)NC(C)Cn2cccn2)cn1` (centres undefined), the cytotoxicity at 70.5 h is -11.6%.

Take `CC(NC(=O)N(C)Cc1ccc2c(c1)OCO2)c1nncn1C` (centres undefined): the cytotoxicity at 70.5 h is -8.56%.

As to `NC(=O)CN1CCCN(C(=O)c2ccn(-c3ccc(F)cc3)n2)CC1`, the cytotoxicity at 70.5 h was determined as 6.29%.

On to `CNC(=O)CN(C)Cc1ccc(F)cc1Cl`, for which the cytotoxicity at 70.5 h is -6.72%.

With `Cn1ccnc1-c1cccc(NC(=O)NCCCN2CCOCC2)c1`, the cytotoxicity at 70.5 h was -2.94%.

As for `CCn1nc2c(cc1=O)CN(CC(=O)Nc1cc(C(C)C)no1)CC2`, the cytotoxicity at 70.5 h is -8.8%.

Take `O=C(CSc1ccc2c(c1)OCCO2)NS(=O)(=O)c1cccnc1`: the cytotoxicity at 70.5 h was -3.19%.

As for `O=C(CSc1ccc2c(c1)OCCO2)NS(=O)(=O)c1ccccc1`, the cytotoxicity at 70.5 h was -8.6%.

`Cn1cc(-c2csc(N3CCCCCC3)n2)cn1`: the cytotoxicity at 70.5 h was -1.01%.

`CC(=O)Nc1ccc(CN2CCOC2=O)cc1`: the cytotoxicity at 70.5 h is -9.56%.

With `CSc1ccc(S(=O)(=O)NC2CNC(=O)C2)cc1` (centres undefined), the cytotoxicity at 70.5 h was -3.59%.

Turning to `CCOCCNC(=O)Nc1cccc(-c2nccn2C)c1`, the cytotoxicity at 70.5 h is -10%.

As for `Cn1cc(-c2nc(CN3CCn4c(nnc4C4CC4)C3)cs2)cn1`, the cytotoxicity at 70.5 h was -4.85%.

As to `O=C(CSc1ccc2c(c1)OCCO2)NS(=O)(=O)c1ccccc1F`, the cytotoxicity at 70.5 h was -5.01%.

For `COCCNC(=O)CN(C)Cc1ccc(F)cc1Cl`, the cytotoxicity at 70.5 h is -10.1%.

With `CC(C#N)CSc1ccccc1NCC(=O)Nc1ccccc1` (centres undefined), the cytotoxicity at 70.5 h is 14.3%.

`COc1ccc(CNC(=O)CN2CCc3ccccc32)cc1`: the cytotoxicity at 70.5 h was 27%.

For the compound `O=C(CSc1nncs1)N1CCN(Cc2ccc(Cl)cc2)CC1`, the cytotoxicity at 70.5 h was 1.53%.

As to `O=C1NCCCCC1Sc1n[nH]c(=O)n1C1CC1` (centres undefined), the cytotoxicity at 70.5 h worked out at 15.9%.

Turning to `COc1cccnc1NC(=O)COc1c(C)cccc1C`, the cytotoxicity at 70.5 h came out at 18.3%.

As for `O=C(CCc1ccsc1)NCC1CCN(Cc2cccs2)CC1`, the cytotoxicity at 70.5 h is -4.26%.

On to `CC1CCN(CCNC(=O)C2CCN(C(=O)NC(C)C)CC2)CC1`, for which the cytotoxicity at 70.5 h was -6.3%.

Take `COc1cccc(NC(=O)NC(C)(C)c2noc(C)n2)c1`: the cytotoxicity at 70.5 h was -4.79%.

In the case of `CNC(=O)CCNC(=O)Nc1cccc(Cl)c1SC(F)F`, the cytotoxicity at 70.5 h is 0.534%.

For the compound `O=C(CNC(=O)Nc1cccc(Cl)c1SC(F)F)NC1CC1`, the cytotoxicity at 70.5 h is 16.9%.

As to `Cn1cc(CC(=O)N2CCOC(c3nc(C(C)(C)C)n[nH]3)C2)cn1` (centres undefined), the cytotoxicity at 70.5 h is -1.3%.

In the case of `COCCN(Cc1ccc(F)cc1Cl)C(=O)c1csnn1`, the cytotoxicity at 70.5 h is -2.37%.

On to `O=C(Nc1ccnc(OC2CCOC2)c1)c1cccs1` (centres undefined), for which the cytotoxicity at 70.5 h is -4.23%.

Take `Cc1ccn(-c2ccccc2NCc2scnc2C)n1`: the cytotoxicity at 70.5 h was -1.69%.

In the case of `OCC1CCN(Cc2cc3c(cc2Br)OCCO3)CC1`, the cytotoxicity at 70.5 h was 17.4%.

Turning to `CCC1CN(Cc2nnc(C3CC3)o2)CCN1CCOC` (centres undefined), the cytotoxicity at 70.5 h stood at 0.024%.

With `CCOCCN1CCN(Cc2nnc(C3CC3)o2)CC1C` (centres undefined), the cytotoxicity at 70.5 h was -3.62%.

Consider `CN(Cc1ccco1)C(=O)Nc1ccc(=O)n(C)c1`, for which the cytotoxicity at 70.5 h was found to be 0.639%.

With `COc1cccc(CNC(C)c2ccc(-n3ccnc3)cc2)c1O` (centres undefined), the cytotoxicity at 70.5 h was -5.24%.

Take `Cn1cc(CNC2CCS(=O)(=O)C2)c(-c2cc3ccccc3o2)n1` (centres undefined): the cytotoxicity at 70.5 h worked out at 5.22%.

Turning to `CCCc1[nH]n(C)c(=N)c1-c1ccc2c(c1)OCO2`, the cytotoxicity at 70.5 h is -3.98%.

On to `CCn1c(=O)n(Cc2nc(C3CC3)no2)c2ccccc21`, for which the cytotoxicity at 70.5 h was 23.4%.

As for `CCNC(=O)N1CCC(NC(=O)NCCc2cc3ccccc3o2)C1` (centres undefined), the cytotoxicity at 70.5 h was 11.5%.

Regarding `COc1ccc(Cl)cc1CNC(=O)CN1CCC2(CCOC2)C1` (centres undefined), the cytotoxicity at 70.5 h came to 20%.

On to `CCOc1cccc(CNC(=O)CN2CCC3(CCOC3)C2)c1` (centres undefined), for which the cytotoxicity at 70.5 h was -6.18%.

For `CC(NC(=O)N(C)Cc1ccncc1)c1cn(-c2ccccc2)nn1` (centres undefined), the cytotoxicity at 70.5 h was 4.1%.

On to `CCCc1nc(Cn2c(=O)n(C)c3ccccc32)no1`, for which the cytotoxicity at 70.5 h was -6.48%.

With `CCOc1cccc(CNC(C)c2ccc(-n3ccnc3)cc2)c1O` (centres undefined), the cytotoxicity at 70.5 h turned out to be 2.29%.

With `CCC(SC)C(=O)N1CCC(n2ccnn2)CC1` (centres undefined), the cytotoxicity at 70.5 h is -7.09%.

Take `O=C(C(C1CC1)C1CC1)N1CCC(n2ccnn2)CC1`: the cytotoxicity at 70.5 h was -9.3%.

As to `Fc1ccc(C2CN(c3ncnc4[nH]ncc34)CCO2)cc1` (centres undefined), the cytotoxicity at 70.5 h came to 12.2%.

As to `c1ccc(-n2nnnc2NCc2ccc3c(c2)OCO3)cc1`, the cytotoxicity at 70.5 h stood at 4.41%.

Turning to `CC(Nc1cnn(C)c(=O)c1Cl)c1ccc(F)c(F)c1` (centres undefined), the cytotoxicity at 70.5 h worked out at 39.8%.

Regarding `NC(=O)CNC1(c2ccc(Cl)cc2)CCCC1`, the cytotoxicity at 70.5 h came to 0.922%.

With `Cc1cc(S(C)(=O)=O)c(C)c(S(=O)(=O)N2CCCCCC2)c1`, the cytotoxicity at 70.5 h is -7.91%.

For the compound `Cc1cc(S(C)(=O)=O)c(C)c(S(=O)(=O)N2CCN(C)CC2)c1`, the cytotoxicity at 70.5 h is 32.6%.

For `CC(C)(C)CC(=O)NCC(=O)Nc1ccn(Cc2ccncc2)n1`, the cytotoxicity at 70.5 h is -20.8%.

As to `NC(=O)NC(=O)CNC1(c2ccc(Cl)cc2)CCC1`, the cytotoxicity at 70.5 h amounted to 2.08%.

Consider `Cn1nc(Br)c2c(NCCSCCCO)ncnc21`, for which the cytotoxicity at 70.5 h is -10.5%.

With `CC(NC(=O)N1CCNC(=O)CC1)c1ccc(C(F)(F)F)cc1` (centres undefined), the cytotoxicity at 70.5 h is -19.2%.

On to `CCOCCN1CCCC1CS(N)(=O)=O` (centres undefined), for which the cytotoxicity at 70.5 h was -10.1%.

In the case of `CC(NC(=O)N1CCNC(=O)CC1)c1ccc(OC(F)F)cc1` (centres undefined), the cytotoxicity at 70.5 h is -8.12%.

Regarding `Cc1ccc(-n2nc(C)cc2N)nn1`, the cytotoxicity at 70.5 h is -14.8%.

As to `CCC(NC(=O)NCc1cccc(N(C)C)n1)c1cccs1` (centres undefined), the cytotoxicity at 70.5 h was -11.8%.

Turning to `CSCC(CCO)NC(=O)c1cccc(C)c1Cl` (centres undefined), the cytotoxicity at 70.5 h was -13.9%.

Regarding `CC(Nc1cnn(C)c(=O)c1Cl)c1ccc(F)cc1` (centres undefined), the cytotoxicity at 70.5 h is -13.1%.

On to `CN(CC(=O)NCc1ccco1)Cc1nc2c(s1)CCCC2`, for which the cytotoxicity at 70.5 h came to 4%.

For `COCCn1ccc(NC(=O)CNC(=O)CC(C)(C)C)n1`, the cytotoxicity at 70.5 h was 27.5%.

With `COCCN1CCN(CC(=O)N(C)Cc2ccc(F)cc2)CC1C` (centres undefined), the cytotoxicity at 70.5 h came to 23.3%.

On to `CN(CCCc1cc(-c2cccc(F)c2)n[nH]1)C(=O)CCn1cncn1`, for which the cytotoxicity at 70.5 h is -13.6%.

As for `O=C(c1cnns1)N1CCN(Cc2ccc(F)cc2Cl)CC1`, the cytotoxicity at 70.5 h is -4.81%.

With `COc1cccc(N2CCC(CNC(=O)NCc3ccco3)C2)c1` (centres undefined), the cytotoxicity at 70.5 h is -0.834%.

`COc1cccc(N2CCC(CNC(=O)N(C)Cc3ccco3)C2)c1` (centres undefined): the cytotoxicity at 70.5 h was -3.66%.

As to `COCCN1CCN(CC(=O)N(C)Cc2ccc(C)o2)CC1C` (centres undefined), the cytotoxicity at 70.5 h was -12.6%.

Consider `CS(=O)(=O)CCNCc1ccc(OCc2ccncc2)cc1`, for which the cytotoxicity at 70.5 h is 19.2%.

As to `Cn1nc2c(cc1=O)CN(Cc1ccc(-n3cccn3)cc1)CC2`, the cytotoxicity at 70.5 h was -6.38%.

For `CN1CCC(NC(=O)Nc2ccc(Cl)c(F)c2)C1=O` (centres undefined), the cytotoxicity at 70.5 h is 2.58%.

With `CC(C)CN1C(=O)C2(CCCC2)NC12CCSCC2`, the cytotoxicity at 70.5 h is 0.871%.

Consider `O=C1CN(C(=O)C2CCOCC2)CCN1Cc1ccc(Cl)cc1`, for which the cytotoxicity at 70.5 h worked out at 0.576%.
